The text below walks through data of patent US20100203125A1, “SYNERGISTIC ANTIBACTERIAL FORMULATION AND A METHOD OF MAKING THE SAME” (priority 2004, published 2010).

≈ marks a conversion by molar mass, not a printed value. Like-named read-outs stand apart in the source and are kept apart here.

Data set [1] is described as follows: Clinical Trial 2, comparative plasma concentration study. Conditions: for Plasma concentration from the formulation compared with conventional separate dosing: human, in vivo. The protocol: Comparative studies were conducted on 24 healthy male patients who were pre-tested for non-allergic conditions against Betalactam and Cephalsporin antibiotics.
For another data set, the system named is plasma proteins. Particulars: cited from earlier work.
The conditions of data set [2]: in vivo; cited from earlier work.
The conditions of data set [3]: cited from earlier work.
Data set [4] is described as follows: Plasma concentration levels of cefixime and dicloxacillin formulation (Table 4). Particulars: in vivo.
For data set [5] the following is noted: in vivo, cited from earlier work; for Bioavailability after oral administration / Serum half-life / half life: human.
Data set [6] concerns Staphylococcus epidermidis. Particulars: cited from earlier work.
Another data set has as its system Neisseria gonorrhoeae. Conditions: cited from earlier work.
Another data set deals with Staphylococcus aureus. Particulars: cited from earlier work.
In another data set the test system is Streptococcus pneumoniae. Particulars: cited from earlier work.
The test system of a further data set is Streptococcus pyogenes. Conditions: cited from earlier work.
The subject of a further data set is S. epidermidis [C4]. As to the kind of experiment: Zone of inhibition study. Type of data set: cell-based. Particulars: 37° C. 24 hours, excluding well diameter. On the procedure: (§1) Quantitative methods of susceptibility testing that require measurements of zone diameters give the most precise estimates of antibiotic susceptibility. Zone of inhibition study was performed Cefixime and dicloxacillin combination with suitable concentration and compare with the zone of inhibition of individual antibiotic to study the synergy. Nutrient Agar plates (duplicate sets) were used for inoculation of microorganism culture using spread plate technique. Wells of 6.0 mm diameter were made in agar plate and test and standard antibiotics preparations were placed in the respective wells. Suitable control plates and plates with no antibiotics were simultaneously then inoculated after appropriate dilution on separate nutrient agar plates (duplicate sets) using spread plate technique. […] All the diameters [zone of inhibition] were measure excluding the well diameter. Four species of bacteria namely E. coli [C1], S. aureus [C2], Salmonella typhimurium [C3], and S. epidermidis [C4] were selected for zone of inhibition study. […] There was no zone of inhibitions found for control plates.

The next data set deals with E. coli [C1]. The data set is described as follows: Zone of inhibition study. Type of data set: cell-based. Conditions: 37° C. 24 hours, excluding well diameter. The protocol:
as §1

For data set [7], the system named is Salmonella typhimurium [C3]. The data set is described as follows: Zone of inhibition study. Conditions: 37° C. 24 hours, excluding well diameter. Type of data set: cell-based. The protocol:
as §1

The test system of a further data set is S. aureus [C2]. As to the kind of experiment: Zone of inhibition study. It is filed as cell-based. Particulars: 37° C. 24 hours, excluding well diameter. The protocol:
as §1

In the case of `C=CC1=C(C(=O)O)N2C(=O)[C@@H](NC(=O)/C(=N\OCC(=O)O)c3csc(N)n3)[C@H]2SC1` [Cefixime], the “Plasma concentration from the formulation compared with conventional separate dosing” value in [1] was “better”. The Blood plasma conc in data set [1] (separate tablets (Cloxacillin 250 mg × 2, Cefixime 200 mg), 1 hrs) is listed as 0.46; in data set [1] (separate tablets (Cloxacillin 250 mg × 2, Cefixime 200 mg), 2 hrs), 1.23; in [1] (separate tablets (Cloxacillin 250 mg × 2, Cefixime 200 mg), 3 hrs), 1.52; in data set [1] (separate tablets (Cloxacillin 250 mg × 2, Cefixime 200 mg), 4 hrs), 1.79; in data set [1] (separate tablets (Cloxacillin 250 mg × 2, Cefixime 200 mg), 6 hrs), 1.14; in data set [1] (separate tablets (Cloxacillin 250 mg × 2, Cefixime 200 mg), 8 hrs), 0.88. The Blood plasma conc in data set [1] (separate tablets (Cloxacillin 250 mg × 2, Cefixime 200 mg), 9 hrs) is on record as 0.72; in data set [1] (separate tablets (Cloxacillin 250 mg × 2, Cefixime 200 mg), 10 hrs) it was 0.6; in data set [1] (separate tablets (Cloxacillin 250 mg × 2, Cefixime 200 mg), 12 hrs) it was 0.5; in data set [1] (separate tablets (Cloxacillin 250 mg × 2, Cefixime 200 mg), 14 hrs), 0.36; in data set [1] (separate tablets (Cloxacillin 250 mg × 2, Cefixime 200 mg), 16 hrs), 0.2; in data set [1] (separate tablets (Cloxacillin 250 mg × 2 at 6 hour interval, Cefixime 200 mg), 0 hrs, average of 24), 0. The Blood plasma conc in data set [1] (synergetic formulation (Cloxacillin 500 mg, Cefixime in combination), 0 hrs, average of 24) is on record as 0; in data set [1] (synergetic formulation (Cloxacillin 500 mg, Cefixime in combination), 1 hrs), 0.7; in [1] (synergetic formulation (Cloxacillin 500 mg, Cefixime in combination), 2 hrs), 1.4; in data set [1] (synergetic formulation (Cloxacillin 500 mg, Cefixime in combination), 3 hrs), 1.58; in [1] (synergetic formulation (Cloxacillin 500 mg, Cefixime in combination), 4 hrs), 2.01; in [1] (synergetic formulation (Cloxacillin 500 mg, Cefixime in combination), 6 hrs), 1.52. Also, the Blood plasma conc in data set [1] (synergetic formulation (Cloxacillin 500 mg, Cefixime in combination), 8 hrs) turned out to be 1.03; in [1] (synergetic formulation (Cloxacillin 500 mg, Cefixime in combination), 9 hrs), 0.91; in data set [1] (synergetic formulation (Cloxacillin 500 mg, Cefixime in combination), 10 hrs) it was 0.72; in data set [1] (synergetic formulation (Cloxacillin 500 mg, Cefixime in combination), 12 hrs), 0.6; in data set [1] (synergetic formulation (Cloxacillin 500 mg, Cefixime in combination), 14 hrs), 0.34; in [1] (synergetic formulation (Cloxacillin 500 mg, Cefixime in combination), 16 hrs), 0.18. Moreover, the Plasma protein binding in the data set with plasma proteins (Table 1) is given as 60-70%. Moreover, the Acute toxicity result in [2] is reported as “negligibly low”. Also, the “Solubility in dehydrated alcohol” value in data set [3] is given as “sparingly soluble”. For the same compound, in [3], the “Solubility in ethyl acetate” value is reported as “practically insoluble”. In data set [3], the “Solubility in methyl alcohol” value is on record as “freely soluble”. For the same compound, the Solubility in water result in data set [3] is reported as “slightly soluble”. Moreover, the concentration at 0 h in data set [4] worked out at 0 ng/mL. This compound had a concentration at 0.5 h in data set [4] of 360 ng/mL. The compound also came in with a concentration at 1 h in [4] of 520 ng/mL. In data set [4], this compound returned a concentration at 2 h of 1340 ng/mL. In addition, in data set [4], the concentration at 3 h amounted to 1620 ng/mL. Moreover, the concentration at 4 h in data set [4] is 1840 ng/mL. This compound also gave a concentration at 6 h in data set [4] of 1560 ng/mL. Moreover, the concentration at 8 h in data set [4] worked out at 980 ng/mL. The compound also gave a concentration at 10 h in [4] of 600 ng/mL. This compound also displayed a concentration at 12 h in [4] of 500 ng/mL. Moreover, in data set [4], the concentration at 14 h worked out at 350 ng/mL. Further, in data set [4], the concentration at 16 h amounted to 200 ng/mL. In [4], this compound displayed a concentration at 20 h of 0 ng/mL. Also, in data set [4], the concentration at 24 h came to 0 ng/mL. For the same compound, the Oral absorption in data set [5] (po) was 50%. The “Oral dose absorbed from the gastrointestinal tract” value in data set [5] (po) was 40-50%. In addition, the “Eliminated by nonrenal mechanisms” value in data set [5] was “Up to 60%”. Moreover, in data set [5], the Plasma half-life is 180 min. In [5], the “Urinary Excretion” value was 34-48%. In addition, the “Vol Distribution” value in data set [5] is 0.30 ± 0.03.
As for `Cc1onc(-c2ccccc2Cl)c1C(=O)N[C@@H]1C(=O)N2[C@@H]1SC(C)(C)[C@@H]2C(=O)O` [Cloxacillin sodium, chlorphenylmethyl isoxazolyl penicillin sodium], the “Bioavailability after oral administration” value (“Bioavailability” below) in data set [5] (po) is reported as 37-60%.
Turning to `Cc1onc(-c2ccccc2Cl)c1C(=O)N[C@@H]1C(=O)N2[C@@H]1SC(C)(C)[C@@H]2C(=O)O` [Cloxacillin], the “Plasma concentration from the formulation compared with conventional separate dosing” value in [1] was “significantly better plasma concentration”. In the data set on plasma proteins (plasma), the Plasma protein binding was 93-95%. Also, the MIC90 in data set [6] is 0.1 µg/mL (≈ 0.229 µM). Further, in data set [5], the “Serum half-life / half life” value was 24 to 48 min, the Cmax was 8000 ng/mL, the Half life is 38 min and the Plasma half life was 0.5 h-0.65. In [5], the Plasma half-life is 30 to 90 min. In addition, the Urinary clearance rate in data set [5] (iv) is 162.2 mL/min. Moreover, the MIC90 in the data set with Neisseria gonorrhoeae is 0.1 µg/mL (≈ 0.229 µM). In addition, the MIC90 with Staphylococcus aureus is 0.1 µg/mL (≈ 0.229 µM). Also, the MIC90 with Streptococcus pneumoniae was 0.25 µg/mL (≈ 0.574 µM). In addition, the MIC90 with Streptococcus pyogenes was 0.1 µg/mL (≈ 0.229 µM).
Consider `Cc1onc(-c2c(Cl)cccc2Cl)c1C(=O)N[C@@H]1C(=O)N2[C@@H]1SC(C)(C)[C@@H]2C(=O)O` [Dicloxacillin], for which, in the data set with S. epidermidis [C4], the Zone of inhibition was found to be 15 mm. Besides, the Zone of inhibition with E. coli [C1] stood at 9 mm. Also, the Zone of inhibition in data set [7] is recorded as 10 mm. Moreover, the Zone of inhibition in the data set with S. aureus [C2] worked out at 15 mm. In the data set “in vivo”, this compound had a concentration at 0 h of 0 ng/mL, a concentration at 0.5 h of 700 ng/mL, a concentration at 1 h of 810 ng/mL and a concentration at 2 h of 2260 ng/mL. In addition, in the data set “in vivo”, the concentration at 3 h worked out at 3100 ng/mL, the concentration at 4 h amounted to 3940 ng/mL, the concentration at 6 h is 4100 ng/mL and the concentration at 8 h came out at 2960 ng/mL. For the same compound, in “in vivo”, the concentration at 10 h is 2400 ng/mL, the concentration at 12 h is 1380 ng/mL, the concentration at 14 h turned out to be 630 ng/mL and the concentration at 16 h is 300 ng/mL. Also, in the data set “in vivo”, the concentration at 20 h was 0 ng/mL and the concentration at 24 h is 0 ng/mL. Also, in the data set on plasma proteins (plasma), the “Bound to plasma proteins” value is recorded as 90-98% and the Plasma protein binding is 90-98%. For the same compound, in [5] (po), the “Bioavailability” value is 60-80% and the Oral absorption was 60-80%. In data set [5], the “Excreted into the urine” value is “about 60%”, the Plasma half life was 0.5 to 1 h, the Plasma half-life was 30 to 90 min and the “Urinary Excretion” value was 60%. In addition, in [5], the “Vol Distribution” value is on record as 0.1 mL/g and the Volume of distribution was 0.1 mL/g.
For the compound `Cc1onc(-c2ccccc2)c1C(=O)NC1C(=O)N2[C@@H]1SC(C)(C)[C@@H]2C(=O)[O-].[Na+]` (stereo partly drawn) [Oxacillin sodium], in [5] (po), the “Bioavailability” value is on record as 30-35%.
As to `Cc1onc(-c2ccccc2)c1C(=O)N[C@@H]1C(=O)N2[C@@H]1SC(C)(C)[C@@H]2C(=O)O` [oxacillin], in the data set with plasma proteins (plasma), the “Bound to plasma proteins” value is listed as 89-94%. Moreover, the “Serum half-life / half life” value in data set [5] was 18 to 48 min.
